For the test, the system named is cAMP-specific phosphodiesterase (PDE IV). Nature of the test: Inhibition of the PDE IV enzyme derived from a dog trachea. The class given is biochemical. To be noted: test compound 10^−6 M; PDE IV from dog tracheal smooth muscle; substrate cAMP 1 μM. As for the experimental part: cAMP-specific phosphodiesterase (PDE IV) was purified from a dog tracheal smooth muscle according to the method of Torphy et al. [Molecular Pharmacol., 37, 206-214 (1990)]. The PDE activity was measured by the following two steps according to the method of Kincaid and Manganiello et al. [Method in Enzymology (J. D. Corbin and R. A. Jonson, Eds.), 199, 457-470 (1988)]. Using [^3]cAMP (at a final concentration of 1 μM) as a substrate, the reaction was carried out in a standard mixture containing N,N-bis(2-hydroxyethyl)-2-aminoethanesulfonic acid (50 mM, pH=7.2), MgCl2 (1 mM), and soybean trypsin inhibitor (0.1 mg/ml). The reaction was initiated by adding the enzyme, followed by incubation at 30° C. for 10 to 30 minutes. After stopping the reaction with hydrochloric acid, the generated […] was completely converted to adenosine by 5′-nucleotidase.
The resultant was subjected to chromatography on DEAE-Sephadex A-25, and radio activity of the eluted [^3H] adenosine was counted using a scintillation counter. Each of the test drugs was dissolved in DMSO (final concentration 1.7%) and then added to the mixture.
With `COc1ccc(C(C#N)Cc2ccncc2)c2c1OC1(CCCC1)C2.Cl` (racemic) [Compound 64, (±)-4-[1-Cyano-2-(4-pyridyl)ethyl]-7-methoxy-spiro[2,3-dihydrobenzofuran-2,1′-cyclopentane].hydrochloride], the “Enzyme Inhibitory Activity (%, 10^−6 M)” value amounted to 78%. Next, `COc1ccc(C(C)(C#N)Cc2ccncc2)c2c1OC1(CCCC1)C2.Cl` (racemic) [Compound 65, (±)-4-[1-Cyano-1-methyl-2-(4-pyridyl)ethyl]-7-methoxy-spiro[2,3-dihydrobenzofuran-2,1′-cyclopentane].hydrochloride]: 74%; `COc1ccc(C(Cc2ccncc2)c2ccccc2)c2cc(-c3ccncc3)oc12.Cl` (racemic) [Compound 66, (±)-7-Methoxy-4-[1-phenyl-2-(4-pyridyl)ethyl]-2-(4-pyridyl)benzofuran.hydrochloride]: 49%; `COc1ccc(/C=C/c2ccncc2)c2c1OCC2C` (racemic) [Compound 79, (E)-(±)-7-Methoxy-3-methyl-4-[2-(4-pyridyl)ethenyl]-2,3-dihydrobenzofuran]: 45%. As to `COc1ccc(C(=O)Cc2ccncc2)c2c1O[C@@H]1CCCC[C@H]21.Cl` (racemic) [Compound 105, (±)-cis-6-Methoxy-9-[1-oxo-2-(4-pyridyl)ethyl]-1,2,3,4,4a,9b-hexahydrodibenzofuran.hydrochloride], the “Enzyme Inhibitory Activity (%, 10^−6 M)” value came to 66%. Next, `COc1ccc(C(=O)Nc2c(Cl)cncc2Cl)c2ccoc12` [Compound 33, 4-[(3,5-Dichloro-4-pyridyl)aminocarbonyl]-7-methoxy-benzofuran]: 71%. In the case of `COc1ccc(C(=O)Nc2c(Cl)cncc2Cl)c2cc(C#N)oc12` [Compound 34, 2-Cyano-4-(3,5-dichloropyridin-4-ylaminocarbonyl)-7-methoxybenzofuran] it was 100%; in that of `COc1ccc(C(=O)Nc2ccncc2)c2cc(-c3ccncc3)oc12.Cl.Cl` [Compound 39, 7-Methoxy-2-(4-pyridyl)-4-(4-pyridylaminocarbonyl)-benzofuran.2 hydrochloride], 77%; in that of `COc1ccc(C(=O)Nc2ccncc2)c2cc(-c3ccccn3)oc12.Cl.Cl` [Compound 41, 7-Methoxy-2-(2-pyridyl)-4-[(4-pyridylamino)carbonyl]-benzofuran.2 hydrochloride], 58%.

In the case of `CCC1(CC)Cc2c(CCc3c(Cl)cncc3Cl)ccc(OC)c2O1.CS(=O)(=O)O` [Compound 50, 4-[2-(3,5-Dichloro-4-pyridyl)ethyl]-2,2-diethyl-7-methoxy-2,3-dihydrobenzofuran.methanesulfonate], the “Enzyme Inhibitory Activity (%, 10^−6 M)” value was determined as 69%. In the case of `CCC1(CC)Cc2c(CCc3ccncc3)ccc(OC)c2O1.Cl` [Compound 51, 2,2-Diethyl-7-methoxy-4-[2-(4-pyridyl)ethyl]-2,3-dihydrobenzofuran.hydrochloride] it was 67%; in that of `COc1ccc(CCc2c(Cl)cncc2Cl)c2c1OC1(CCCC1)C2.CS(=O)(=O)O` [Compound 52, 4-[2-(3,5-Dichloro-4-pyridyl)ethyl]-7-methoxy-spiro[2,3-dihydrobenzofuran-2,1′-cyclopentane].methanesulfonate], 86%; in that of `COc1ccc(CCc2ccncc2)c2c1OC1(CCCC1)C2.Cl` [Compound 53, 7-Methoxy-4-[2-(4-pyridyl)ethyl]-spiro[2,3-dihydro-benzofuran-2,1′-cyclopentane].hydrochloride], 84%. In the case of `COc1ccc(CCc2c(Cl)cncc2Cl)c2c1OC1(CCCCC1)C2.CS(=O)(=O)O` [Compound 54, 4-[2-(3,5-Dichloro-4-pyridyl)ethyl]-7-methoxy-spiro[2,3-dihydrobenzofuran-2,1′-cyclohexane].methanesulfonate] it was 81%; in that of `COc1ccc(CCc2ccncc2)c2c1OC1(CCCCC1)C2.Cl` [Compound 55, 7-Methoxy-4-[2-(4-pyridyl)ethyl]-spiro[2,3-dihydro-benzofuran-2,1′-cyclohexane].hydrochloride], 86%. Next, `COc1ccc(C(=Cc2ccncc2)c2ccccc2)c2c1OC(C)(C)C2` [Compound 70, 7-Methoxy-2,2-dimethyl-4-[1-phenyl-2-(4-pyridyl)-ethenyl]-2,3-dihydrobenzofuran]: 68%. As to `CCC1(CC)Cc2c(/C=C/c3c(Cl)cncc3Cl)ccc(OC)c2O1.CS(=O)(=O)O` [Compound 71, (E)-2,2-Diethyl-7-methoxy-4-[2-(3,5-dichloro-4-pyridyl)ethenyl]-2,3-dihydrobenzofuran.methanesulfonate], the “Enzyme Inhibitory Activity (%, 10^−6 M)” value amounted to 87%.

Take `COc1ccc(/C=C/c2ccncc2)c2c1OC1(CCCC1)C2.Cl` [Compound 74, (E)-7-Methoxy-4-[2-(4-pyridyl)ethenyl]-spiro[2,3-dihydrobenzofuran-2,1′-cyclopentane].hydrochloride]: the “Enzyme Inhibitory Activity (%, 10^−6 M)” value amounted to 73%. Next, `COc1ccc(C(C)=Cc2ccncc2)c2c1OC1(CCCC1)C2` [Compound 75, 7-Methoxy-4-[1-methyl-2-(4-pyridyl)ethenyl]-spiro[2,3-dihydrobenzofuran-2,1′-cyclopentane]]: 72%; `COc1ccc(/C=C/c2c(Cl)cncc2Cl)c2c1OC1(CCCCC1)C2.CS(=O)(=O)O` [Compound 76, (E)-4-[2-(3,5-Dichloro-4-pyridyl)ethenyl]-7-methoxy-spiro[2,3-dihydrobenzofuran-2,1′-cyclohexane].methanesulfonate]: 93%.

In the case of `COc1ccc(/C=C/c2ccncc2)c2c1OC1(CCCCC1)C2.Cl` [Compound 77, (E)-7-Methoxy-4-[2-(4-pyridyl)ethenyl]-spiro[2,3-dihydrobenzofuran-2,1′-cyclohexane].hydrochloride], the “Enzyme Inhibitory Activity (%, 10^−6 M)” value is given as 87%. Next, `COc1ccc(/C=C/c2ccncc2)c2cc(-c3ccccc3)oc12.Cl` [Compound 81, (E)-7-Methoxy-2-phenyl-4-[2-(4-pyridyl)ethenyl]-benzofuran.hydrochloride]: 56%; `COc1ccc(/C=C/c2ccncc2)c2cc(-c3ccncc3)oc12.Cl.Cl` [Compound 83, (E)-7-Methoxy-2-(4-pyridyl)-4-[2-(4-pyridyl)ethenyl]-benzofuran.2 hydrochloride]: 89%; `COc1ccc(/C=C/c2ccncc2)c2cc(-c3ccccn3)oc12.Cl.Cl` [Compound 85, (E)-7-Methoxy-2-(2-pyridyl)-4-[2-(4-pyridyl)ethenyl]-benzofuran.2 hydrochloride]: 69%.

`COC(=O)c1cccc(NC(=O)/C=C/c2ccc(OC)c3c2CC2(CCCC2)O3)c1` [Compound 93, (E)-7-Methoxy-4-{2-[3-(methoxycarbony)phenyl-1-ylaminocarbonyl]ethenyl}-spiro[2,3-dihydrobenzofuran-2,1′-cyclopentane]]: the “Enzyme Inhibitory Activity (%, 10^−6 M)” value stood at 23%.

For `CCC1(CC)Cc2c(C(=O)Cc3ccncc3)ccc(OC)c2O1.Cl` [Compound 98, 2,2-Diethyl-7-methoxy-4-[1-oxo-2-(4-pyridyl)ethyl]-2,3-dihydrobenzofuran.hydrochloride], the “Enzyme Inhibitory Activity (%, 10^−6 M)” value came to 85%.

In the case of `COc1ccc(C(=O)Cc2ccccc2)c2cc(C(=O)c3ccccc3)oc12` [Compound 107, 2-Benzoyl-7-methoxy-4-(1-oxo-2-phenylethyl)benzofuran], the “Enzyme Inhibitory Activity (%, 10^−6 M)” value turned out to be 63%. With `CCCCc1cc2c(C(=O)Cc3ccncc3)ccc(OC)c2o1.Cl` [Compound 109, 2-Butyl-7-methoxy-4-[1-oxo-2-(4-pyridyl)ethyl]-benzofuran.hydrochloride], the “Enzyme Inhibitory Activity (%, 10^−6 M)” value is reported as 68%. Next, `COc1ccc(C(=O)Cc2ccncc2)c2cc(CC(C)C)oc12.Cl` [Compound 110, 7-Methoxy-2-(2-methylpropyl)-4-[1-oxo-2-(4-pyridyl)-ethyl]benzofuran.hydrochloride]: 80%; `COc1ccc(C(=O)Cc2ccncc2)c2cc(-c3ccccc3)oc12.Cl` [Compound 111, 7-Methoxy-4-[1-oxo-2-(4-pyridyl)ethyl]-2-phenyl-benzofuran.hydrochloride]: 69%; `COc1ccc(C(=O)Cc2ccncc2)c2cc(-c3ccncc3)oc12.Cl.Cl` [Compound 115, 7-Methoxy-4-[1-oxo-2-(4-pyridyl)ethyl]-2-(4-pyridyl)-benzofuran.2 hydrochloride]: 85%. In the case of `COc1ccc(C(=O)Cc2ccncc2)c2cc(-c3ccccn3)oc12.Cl.Cl` [Compound 117, 7-Methoxy-4-[1-oxo-2-(4-pyridyl)ethyl]-2-(2-pyridyl)-benzofuran.2 hydrochloride] it was 87%. Turning to `COc1ccc(C(=O)Cc2ccncc2)c2c(-c3ccccc3)coc12.Cl` [Compound 118, 7-Methoxy-4-[1-oxo-2-(4-pyridyl)ethyl]-3-phenyl-benzofuran.hydrochloride], the “Enzyme Inhibitory Activity (%, 10^−6 M)” value came out at 80%.

The record behind these values is patent US6716987B1, “Derivatives of benzofuran or benzodioxazole compounds” (Kyowa Hakko Kogyo Co., Ltd., priority 1995, dated 2004).
